Measured values taken from US10752617B2 (GALDERMA RESEARCH & DEVELOPMENT, priority 2014, dated 2020).
pIC50: −log10 of the molar value.

What follows are compounds tested against T1, GAL4-RORγ (GAL4 DBD fused to the ROR gamma ligand-binding domain) (Homo sapiens, UniProt P51449) (assay: GAL4-RORγ transactivation (luciferase reporter, HG5LN HeLa line)). Conditions: HG5LN HeLa cells, 18 hours incubation, luciferase luminescence, read-out: IC50 hRORg.
T1 construct: expressed in transfected cells; host or cells: HG5LN (HeLa line with GAL4-responsive luciferase reporter)
T1 sequence (P51449 269-508 limits assumed): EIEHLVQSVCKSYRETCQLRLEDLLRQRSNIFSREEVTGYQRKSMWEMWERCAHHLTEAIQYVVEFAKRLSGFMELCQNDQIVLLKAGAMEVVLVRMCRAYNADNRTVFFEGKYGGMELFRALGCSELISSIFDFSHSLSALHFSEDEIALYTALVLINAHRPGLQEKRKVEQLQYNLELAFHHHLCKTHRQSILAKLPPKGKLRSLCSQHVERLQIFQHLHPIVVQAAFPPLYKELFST
Assay type: cell-based
Description: In the tables described above, the median inhibitory concentrations IC50 for the compounds belonging to formula (I) according to the invention have been given according to the following models:
GAL4-RORγ Transactivation
The RORγ transactivation model was developed from the line HG5LN, which is a HeLa line that stably expresses a luciferase reporter gene controlled by a pentamer of the GAL4 recognition domain of yeast and of a β-globin promoter. The HG5LN line was stably transfected by the DNA-binding domain (DBD) of GAL4 fused to the ROR gamma ligand-binding domain (LBD). Molecules that inhibit the ROR gamma constitutive activity reduce the luciferase expression, thus leading to a reduction in the emitted luminescence.
The cells are seeded in 384-well plates (5000 cells in 45 μL/well of culture medium containing 10% fetal calf serum) and incubated for 4 hours at 37° C., 5% CO2. 5 μL of the test molecules (compounds described in the tables described above) are then added to each well and the plates are incubated for 18 hours at a temperature of 37° C. under 5% of CO2. 20 μL of luciferase substrate (Promega) are added to each well and the luminescence emitted is read by a microplate reader.
The luminescence units (“RLU”) are normalized by positive controls (“POS” containing a saturated concentration of N-(2,2,2-trifluoroethyl)-N-[4-[2,2,2-trifluoro-1-hydroxy-1-(trifluoromethyl)ethyl]phenyl])benzenesulfonamide and negative controls (“NEG” containing DMSO): % inhibition=((RLU−NEG)*100)/(POS−NEG). The IC50 values are calculated from a 4-parameter logistic model using the XLFit software (IDBS).

SMILES | pIC50
CCc1ccc(N(CC(C)C)S(=O)(=O)c2ccc3c(c2)c(CO)nn3CC2CCOCC2)cc1 [Compound 14, 3-hydroxymethyl-1-(tetrahydropyran-4-ylmethyl)-1H-indazole-5-sulfonic acid (4-ethylphenyl)isobutylamide] | < 6.00
CCc1ccc(N(CC2COC2)S(=O)(=O)c2ccc3c(cnn3CC3CCOCC3)c2)cc1 [Compound 16, 1-(tetrahydropyran-4-ylmethyl)-1H-indazole-5-sulfonic acid (4-ethylphenyl)oxetan-3-ylmethylamide] | < 6.00
CCc1ccc(N(CC(C)C)S(=O)(=O)c2ccc3c(c2)c(OCC2CCOCC2)nn3CC2CCOCC2)cc1 [Compound 18, 3-(tetrahydropyran-4-ylmethoxy)-1-(tetrahydropyran-4-ylmethyl)-1H-indazole-5-sulfonic acid (4-ethylphenyl)isobutylamide] | < 6.00
CCc1ccc(N(CC(C)C)S(=O)(=O)c2ccc3c(cnn3CC3CN(C(C)=O)C3)c2)cc1 [Compound 19] | < 6.00
CCc1ccc(N(CC(C)C)S(=O)(=O)c2ccc3c(cnn3CC3CCN(C(C)=O)C3)c2)cc1 (stereo not drawn) [Compound 20, 1-((1-acetylpyrrolidin-3-yl)methyl)-N-(4-ethylphenyl)-N-isobutyl-1H-indazole-5-sulfonamide] | < 6.00
CCc1ccc(N(CC(C)C)S(=O)(=O)c2ccc3c(cnn3CC3CCOC3)c2)cc1 (stereo not drawn) [Compound 21, N-(4-ethylphenyl)-N-isobutyl-1-((tetrahydrofuran-3-yl)methyl)-1H-indazole-5-sulfonamide] | < 6.00
CCc1ccc(N(CC(C)C)S(=O)(=O)c2ccc3c(cnn3CC3CCCOC3)c2)cc1 (stereo not drawn) [Compound 22, N-(4-ethylphenyl)-N-isobutyl-1-((tetrahydro-2H-pyran-3-yl)methyl)-1H-indazole-5-sulfonamide] | < 6.00
CCc1ccc(N(CC(C)C)S(=O)(=O)c2ccc3c(cnn3Cc3ccccc3)c2)cc1 [Compound 23, 1-benzyl-N-(4-ethylphenyl)-N-isobutyl-1H-indazole-5-sulfonamide] | < 6.00
COc1cccc(N(CC(C)C)S(=O)(=O)c2ccc3c(cnn3CC3CCOCC3)c2)c1 [Compound 25, 1-(tetrahydropyran-4-ylmethyl)-1H-indazole-5-sulfonic acid (3-methoxyphenyl)isobutylamide] | < 6.00
Cc1cccc(N(CC(C)C)S(=O)(=O)c2ccc3c(cnn3CC3CCOCC3)c2)c1 [Compound 26, 1-(tetrahydropyran-4-ylmethyl)-1H-indazole-5-sulfonic acid (3-methylphenyl)isobutylamide] | < 6.00
Cc1cc(C)cc(N(CC(C)C)S(=O)(=O)c2ccc3c(cnn3CC3CCOCC3)c2)c1 [Compound 28, 1-(tetrahydropyran-4-ylmethyl)-1H-indazole-5-sulfonic acid (3,5-dimethylphenyl)isobutylamide] | < 6.00
CCc1ccc(N(C(C)C)S(=O)(=O)c2ccc3c(cnn3CC3CCOCC3)c2)cc1 [Compound 29, N-(4-ethylphenyl)-N-isopropyl-1-((tetrahydro-2H-pyran-4-yl)methyl)-1H-indazole-5-sulfonamide] | < 6.00
CCc1ccc(N(CC2CC2)S(=O)(=O)c2ccc3c(cnn3CC3CCOCC3)c2)cc1 [Compound 31, N-(cyclopropylmethyl)-N-(4-ethylphenyl)-1-((tetrahydro-2H-pyran-4-yl)methyl)-1H-indazole-5-sulfonamide] | < 6.00

Other lines, results leading:

pIC50 | SMILES
6.00 to 7.00 | CCc1ccc(N([C@H](C)CC)S(=O)(=O)c2ccc3c(cnn3CC3CCOCC3)c2)cc1 [Compound 2, 1-(tetrahydropyran-4-ylmethyl)-1H-indazole-5-sulfonic acid ((R)-sec-butyl)(4-ethylphenyl)amide]
< 6.00 | CCc1ccc(N(C2CC2)S(=O)(=O)c2ccc3c(cnn3CC3CCOCC3)c2)cc1 [Compound 3, 1-(tetrahydropyran-4-ylmethyl)-1H-indazole-5-sulfonic acid cyclopropyl(4-ethylphenyl)amide]
< 6.00 | CCc1ccc(N(CC(C)C)S(=O)(=O)c2ccc3c(Br)nn(C4CCCCO4)c3c2)cc1 (stereo not drawn) [Compound 4, 3-bromo-1-(tetrahydropyran-2-yl)-1H-indazole-6-sulfonic acid (4-ethylphenyl)isobutylamide]
< 6.00 | CCc1ccc(N(CC2CCOCC2)S(=O)(=O)c2ccc3c(cnn3CC3CCOCC3)c2)cc1 [Compound 5, 1-(tetrahydropyran-4-ylmethyl)-1H-indazole-5-sulfonic acid (4-ethylphenyl)(tetrahydropyran-4-ylmethyl)amide]
6.00 to 7.00 | CCc1ccc(N(CC(C)C)S(=O)(=O)c2ccc3c(cnn3Cc3c(C)noc3C)c2)cc1 [Compound 6, 1-((3,5-dimethylisoxazol-4-yl)methyl)-N-(4-ethylphenyl)-N-isobutyl-1H-indazole-5-sulfonamide]
< 6.00 | CCCN(c1ccc(CC)cc1)S(=O)(=O)c1ccc2c(cnn2CC2CCOCC2)c1 [Compound 8, 1-(tetrahydropyran-4-ylmethyl)-1H-indazole-5-sulfonic acid (4-ethylphenyl)propyl]
< 6.00 | CCCCN(c1ccc(CC)cc1)S(=O)(=O)c1ccc2c(cnn2CC2CCOCC2)c1 [Compound 9, 1-(tetrahydropyran-4-ylmethyl)-1H-indazole-5-sulfonic acid butyl(4-ethylphenyl)amide]
< 6.00 | CC(C)CN(c1cc(Cl)ccc1F)S(=O)(=O)c1ccc2c(cnn2CC2CCOCC2)c1 [Compound 10, 1-(tetrahydropyran-4-ylmethyl)-1H-indazole-5-sulfonic acid (5-chloro-2-fluorophenyl)isobutylamide]
6.00 to 7.00 | Cc1ccc(C)c(N(CC(C)C)S(=O)(=O)c2ccc3c(cnn3CC3CCOCC3)c2)c1 [Compound 11, 1-(tetrahydropyran-4-ylmethyl)-1H-indazole-5-sulfonic acid (2,5-dimethylphenyl)isobutylamide]
6.00 to 7.00 | CCCCc1ccc(N(CC(C)C)S(=O)(=O)c2ccc3c(cnn3CC3CCOCC3)c2)c(C)c1 [Compound 13, 1-(tetrahydropyran-4-ylmethyl)-1H-indazole-5-sulfonic acid (4-butyl-2-methylphenyl)isobutylamide]
6.00 to 7.00 | CCc1ccc(N(CC(C)C)S(=O)(=O)c2ccc3c(cnn3C3CCN(C(C)=O)C3)c2)cc1 (stereo not drawn) [Compound 17, 1-(1-acetylpyrrolidin-3-yl)-1H-indazole-5-sulfonic acid (4-ethylphenyl)isobutylamide]
6.00 to 7.00 | CCc1ccc(N(CC2CCC2)S(=O)(=O)c2ccc3c(cnn3CC3CCOCC3)c2)cc1 [Compound 24, N-(cyclobutylmethyl)-N-(4-ethylphenyl)-1-((tetrahydro-2H-pyran-4-yl)methyl)-1H-indazole-5-sulfonamide]
6.00 to 7.00 | Cc1ccc(N(CC(C)C)S(=O)(=O)c2ccc3c(cnn3CC3CCOCC3)c2)c(C)c1 [Compound 27, 1-(tetrahydropyran-4-ylmethyl)-1H-indazole-5-sulfonic acid (2,4-dimethylphenyl)isobutylamide]
6.00 to 7.00 | CCc1ccc(N(C(C)CC)S(=O)(=O)c2ccc3c(cnn3CC3CCOCC3)c2)cc1 (stereo not drawn) [Compound 30, 1-(tetrahydropyran-4-ylmethyl)-1H-indazole-5-sulfonic acid sec-butyl(4-ethylphenyl)amide]
